Measured values as given in patent publication US20100298141A1, “SUBSTITUTED PYRIDINE N-OXIDE HERBICIDES” (E. I. DU PONT DE NEMOURS AND COMPANY, priority 2007, published 2010).

What was measured:
crabgrass = assay: Test A pre-/postemergence greenhouse test; format: in vivo, Digitaria sanguinalis; conditions: for Plant response rating, Crabgrass, Large: 0 to 100 scale where 0 is no effect and 100 is complete control; for Crabgrass, Large plant response rating: 0 to 100 scale
In short: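 Greenhouse herbicide screen, pre- and postemergence in parallel. Soil: loam plus sand. Formulation: non-phytotoxic solvent mix with surfactant. Postemergence stage: one to two leaves, 2–10 cm height. Evaluation: visual injury, compared with untreated controls, about 10 days after treatment.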

kochia = assay: Test C pre-/postemergence test; format: in vivo, Kochia scoparia
In short: (§1)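 Compounds in a non-phytotoxic solvent with surfactant applied preemergence to seeded pots and, at the same time, postemergence to plants 2–18 cm tall (1- to 4-leaf stage). Paddy tests: pots flooded to 3 cm, compound applied into the water, depth held throughout.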

yellow nutsedge = assay: Test C pre-/postemergence test; format: in vivo, Cyperus esculentus
In short: as §1

common ragweed [1] = assay: Test C pre-/postemergence test; format: in vivo, Ambrosia elation
In short: as §1

bermudagrass = assay: Test F preemergence test; format: in vivo, Cynodon dactylon; conditions: scale 0 to 100
In short: (§2)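 Preemergence application to planted seeds, or postemergence to sugarcane plants; compound in non-phytotoxic solvent mix plus surfactant. Greenhouse, 14-21 days. Visual rating vs. controls.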

green foxtail = assay: Test F preemergence test; format: in vivo, Setaria viridis; conditions: scale 0 to 100
In short: as §2

goosegrass = assay: Test F preemergence test; format: in vivo, Eleusine indica; conditions: scale 0 to 100
In short: as §2

pitted morningglory = assay: Test F preemergence test; format: in vivo, Ipomoea lacunosa; conditions: scale 0 to 100
In short: as §2

purple nutsedge = assay: Test F preemergence test; format: in vivo, Cyperus rotundus; conditions: scale 0 to 100
In short: as §2

common ragweed [2] = assay: Test F preemergence test; format: in vivo, Ambrosia elation; conditions: scale 0 to 100
In short: as §2

prickly sida = assay: Test F preemergence test; format: in vivo, Sida spinosa; conditions: scale 0 to 100
In short: as §2

broadleaf signalgrass = assay: Test F preemergence test; format: in vivo, Brachiaria platyphylla; conditions: scale 0 to 100
In short: as §2

naked crabgrass = assay: Test F preemergence test; format: in vivo, Digitaria nuda; conditions: scale 0 to 100
In short: as §2

itchgrass = assay: Test F preemergence test; format: in vivo, Rottboellia cochinchinensis; conditions: scale 0 to 100
In short: as §2

[3] = Postemergence, 500 g ai/ha, 0 is no effect, 100 is complete control
[4] = Preemergence, 125 g ai/ha, 0 no effect, 100 complete control
[5] = 62 g ai/ha, Preemergence, scale 0 to 100
[6] = 125 g ai/ha, preemergence, scale 0 (no effect) to 100 (complete control)
[7] = Preemergence, 31 g ai/ha, scale 0 to 100 (0 no effect, 100 complete control)
[8] = preemergence, 250 g ai/ha, scale 0 (no effect) to 100 (complete control)
[9] = Postemergence, 62 g ai/ha, scale 0 to 100, 0 no effect, 100 complete control
[10] = Postemergence, 125 g ai/ha, scale 0 to 100, 0 no effect, 100 complete control
[11] = Postemergence, 250 g ai/ha, scale 0 to 100, 0 no effect, 100 complete control

## CCc1cc[n+]([O-])c(S(=O)(=O)Cc2c(C(F)(F)F)nn(C)c2OCC(F)(F)F)c1 [Compound 60]
crabgrass; Postemergence, 125 g ai/ha
  Plant response rating, Crabgrass, Large: 50
crabgrass; [3]
  Crabgrass, Large plant response rating: 80
crabgrass; [4]
  Crabgrass, Large plant response rating: 90
crabgrass; Preemergence, 500 g ai/ha
  Plant response rating, Crabgrass, Large: 100
kochia; [5]
  Kochia plant response rating: 100
kochia; [6]
  Kochia plant response rating: 100
kochia; [7]
  Plant response rating, Kochia: 80
kochia; [8]
  Kochia plant response rating: 100
Yellow nutsedge; [5]
  Nutsedge, Yellow plant response rating: 50
Yellow nutsedge; [6]
  Nutsedge, Yellow plant response rating: 100
Yellow nutsedge; [7]
  Plant response rating, Nutsedge, Yellow: 20
Yellow nutsedge; [8]
  Nutsedge, Yellow plant response rating: 100
Common ragweed [1]; [5]
  Ragweed plant response rating: 60
Common ragweed [1]; [7]
  Plant response rating, Ragweed: 30
Common ragweed [1]; [8]
  Ragweed plant response rating: 90
bermudagrass; 62 g ai/ha, Preemergence
  Bermudagrass plant response rating: 80
bermudagrass; 125 g ai/ha, preemergence
  Bermudagrass plant response rating: 100
bermudagrass; 250 g ai/ha, preemergence
  Bermudagrass plant response rating: 100
bermudagrass; Preemergence, 31 g ai/ha
  Plant response rating, Bermudagrass: 20
Green foxtail; 62 g ai/ha, Preemergence
  Foxtail, Green plant response rating: 75
Green foxtail; 125 g ai/ha, preemergence
  Foxtail, Green plant response rating: 100
Green foxtail; 250 g ai/ha, preemergence
  Foxtail, Green plant response rating: 100
Green foxtail; Preemergence, 31 g ai/ha
  Plant response rating, Foxtail, Green: 15
goosegrass; 62 g ai/ha, Preemergence
  Goosegrass plant response rating: 80
goosegrass; 125 g ai/ha, preemergence
  Goosegrass plant response rating: 100
goosegrass; 250 g ai/ha, preemergence
  Goosegrass plant response rating: 100
goosegrass; Preemergence, 31 g ai/ha
  Plant response rating, Goosegrass: 80
Pitted morningglory; 62 g ai/ha, Preemergence
  Morningglory plant response rating: 0
Pitted morningglory; 125 g ai/ha, preemergence
  Morningglory plant response rating: 70
Pitted morningglory; 250 g ai/ha, preemergence
  Morningglory plant response rating: 100
Pitted morningglory; Preemergence, 31 g ai/ha
  Plant response rating, Morningglory: 0
Purple nutsedge; 62 g ai/ha, Preemergence
  Purple Nutsedge plant response rating: 50
Purple nutsedge; 125 g ai/ha, preemergence
  Purple Nutsedge plant response rating: 80
Purple nutsedge; 250 g ai/ha, preemergence
  Purple Nutsedge plant response rating: 90
Purple nutsedge; Preemergence, 31 g ai/ha
  Plant response rating, Purple Nutsedge: 0
Common ragweed [2]; 125 g ai/ha, preemergence
  Ragweed plant response rating: 75
Common ragweed [2]; 250 g ai/ha, preemergence
  Ragweed plant response rating: 100
Common ragweed [2]; Preemergence, 62 g ai/ha
  Plant response rating, Ragweed: 65
Common ragweed [2]; Preemergence, 31 g ai/ha
  Plant response rating, Ragweed: 0
Prickly sida; 62 g ai/ha, Preemergence
  Prickly Sida plant response rating: 40
Prickly sida; 125 g ai/ha, preemergence
  Prickly Sida plant response rating: 75
Prickly sida; 250 g ai/ha, preemergence
  Prickly Sida plant response rating: 75
Prickly sida; Preemergence, 31 g ai/ha
  Plant response rating, Prickly Sida: 0
Broadleaf signalgrass; 125 g ai/ha, preemergence
  Signalgrass plant response rating: 75
Broadleaf signalgrass; 250 g ai/ha, preemergence
  Signalgrass plant response rating: 100
Broadleaf signalgrass; Preemergence, 62 g ai/ha
  Plant response rating, Signalgrass: 75
Broadleaf signalgrass; Preemergence, 31 g ai/ha
  Plant response rating, Signalgrass: 30
Naked crabgrass; 62 g ai/ha, Preemergence
  Crabgrass, Naked plant response rating: 100
Naked crabgrass; 125 g ai/ha, preemergence
  Crabgrass, Naked plant response rating: 100
Naked crabgrass; 250 g ai/ha, preemergence
  Crabgrass, Naked plant response rating: 100
Naked crabgrass; Preemergence, 31 g ai/ha
  Plant response rating, Crabgrass, Naked: 20
itchgrass; 62 g ai/ha, Preemergence
  Itchgrass plant response rating: 15
itchgrass; 125 g ai/ha, preemergence
  Itchgrass plant response rating: 25
itchgrass; 250 g ai/ha, preemergence
  Itchgrass plant response rating: 70
itchgrass; Preemergence, 31 g ai/ha
  Plant response rating, Itchgrass: 0

## Cn1nc(C(F)(F)F)c(C[S+]([O-])c2ccc(F)c[n+]2[O-])c1OCC(F)(F)F (stereo not drawn) [Compound 67]
crabgrass; Postemergence, 125 g ai/ha
  Plant response rating, Crabgrass, Large: 90
crabgrass; [3]
  Crabgrass, Large plant response rating: 90
crabgrass; [4]
  Crabgrass, Large plant response rating: 100
crabgrass; Preemergence, 500 g ai/ha
  Plant response rating, Crabgrass, Large: 100
kochia; [5]
  Kochia plant response rating: 100
kochia; [6]
  Kochia plant response rating: 100
kochia; Postemergence, 31 g ai/ha
  Plant response rating (0 to 100), Kochia: 0
kochia; [9]
  Plant response rating, Kochia: 0
kochia; [10]
  Plant response rating, Kochia: 60
kochia; [11]
  Plant response rating, Kochia: 60
kochia; [7]
  Plant response rating, Kochia: 80
kochia; [8]
  Kochia plant response rating: 100
Yellow nutsedge; [5]
  Nutsedge, Yellow plant response rating: 40
Yellow nutsedge; [6]
  Nutsedge, Yellow plant response rating: 40
Yellow nutsedge; Postemergence, 31 g ai/ha
  Plant response rating (0 to 100), Nutsedge, Yellow: 0
Yellow nutsedge; [9]
  Plant response rating, Nutsedge, Yellow: 0
Yellow nutsedge; [10]
  Plant response rating, Nutsedge, Yellow: 0
Yellow nutsedge; [11]
  Plant response rating, Nutsedge, Yellow: 0
Yellow nutsedge; [7]
  Plant response rating, Nutsedge, Yellow: 0
Yellow nutsedge; [8]
  Nutsedge, Yellow plant response rating: 60
Common ragweed [1]; [5]
  Ragweed plant response rating: 100
Common ragweed [1]; [6]
  Ragweed plant response rating: 100
Common ragweed [1]; Postemergence, 31 g ai/ha
  Plant response rating (0 to 100), Ragweed: 0
Common ragweed [1]; Postemergence, 62 g ai/ha
  Plant response rating (0 to 100), Ragweed: 0
Common ragweed [1]; [10]
  Plant response rating, Ragweed: 50
Common ragweed [1]; [11]
  Plant response rating, Ragweed: 55
Common ragweed [1]; [7]
  Plant response rating, Ragweed: 100
Common ragweed [1]; [8]
  Ragweed plant response rating: 100
bermudagrass; 16 g ai/ha, preemergence
  Plant response rating, Bermudagrass: 20
bermudagrass; 62 g ai/ha, Preemergence
  Bermudagrass plant response rating: 98
bermudagrass; 125 g ai/ha, preemergence
  Bermudagrass plant response rating: 100
bermudagrass; Preemergence, 31 g ai/ha
  Plant response rating, Bermudagrass: 75
Green foxtail; 16 g ai/ha, preemergence
  Plant response rating, Foxtail, Green: 40
Green foxtail; 62 g ai/ha, Preemergence
  Foxtail, Green plant response rating: 80
Green foxtail; 125 g ai/ha, preemergence
  Foxtail, Green plant response rating: 100
Green foxtail; Preemergence, 31 g ai/ha
  Plant response rating, Foxtail, Green: 60
goosegrass; 16 g ai/ha, preemergence
  Plant response rating, Goosegrass: 50
goosegrass; 62 g ai/ha, Preemergence
  Goosegrass plant response rating: 80
goosegrass; 125 g ai/ha, preemergence
  Goosegrass plant response rating: 100
goosegrass; Preemergence, 31 g ai/ha
  Plant response rating, Goosegrass: 70
Pitted morningglory; 16 g ai/ha, preemergence
  Plant response rating, Morningglory: 40
Pitted morningglory; 62 g ai/ha, Preemergence
  Morningglory plant response rating: 70
Pitted morningglory; 125 g ai/ha, preemergence
  Morningglory plant response rating: 90
Pitted morningglory; Preemergence, 31 g ai/ha
  Plant response rating, Morningglory: 70
Purple nutsedge; 16 g ai/ha, preemergence
  Plant response rating, Purple Nutsedge: 0
Purple nutsedge; 62 g ai/ha, Preemergence
  Purple Nutsedge plant response rating: 60
Purple nutsedge; 125 g ai/ha, preemergence
  Purple Nutsedge plant response rating: 95
Purple nutsedge; Preemergence, 31 g ai/ha
  Plant response rating, Purple Nutsedge: 30
Common ragweed [2]; 16 g ai/ha, preemergence
  Plant response rating, Ragweed: 20
Common ragweed [2]; 125 g ai/ha, preemergence
  Ragweed plant response rating: 98
Common ragweed [2]; Preemergence, 62 g ai/ha
  Plant response rating, Ragweed: 90
Common ragweed [2]; Preemergence, 31 g ai/ha
  Plant response rating, Ragweed: 65
Prickly sida; 16 g ai/ha, preemergence
  Plant response rating, Prickly Sida: 0
Prickly sida; 62 g ai/ha, Preemergence
  Prickly Sida plant response rating: 90
Prickly sida; 125 g ai/ha, preemergence
  Prickly Sida plant response rating: 98
Prickly sida; Preemergence, 31 g ai/ha
  Plant response rating, Prickly Sida: 65
Broadleaf signalgrass; 16 g ai/ha, preemergence
  Plant response rating, Signalgrass: 0
Broadleaf signalgrass; 125 g ai/ha, preemergence
  Signalgrass plant response rating: 98
Broadleaf signalgrass; Preemergence, 62 g ai/ha
  Plant response rating, Signalgrass: 90
Broadleaf signalgrass; Preemergence, 31 g ai/ha
  Plant response rating, Signalgrass: 30
Naked crabgrass; 16 g ai/ha, preemergence
  Plant response rating, Crabgrass, Naked: 60
Naked crabgrass; 62 g ai/ha, Preemergence
  Crabgrass, Naked plant response rating: 100
Naked crabgrass; 125 g ai/ha, preemergence
  Crabgrass, Naked plant response rating: 100
Naked crabgrass; Preemergence, 31 g ai/ha
  Plant response rating, Crabgrass, Naked: 70
itchgrass; 16 g ai/ha, preemergence
  Plant response rating, Itchgrass: 15
itchgrass; 62 g ai/ha, Preemergence
  Itchgrass plant response rating: 65
itchgrass; 125 g ai/ha, preemergence
  Itchgrass plant response rating: 100
itchgrass; Preemergence, 31 g ai/ha
  Plant response rating, Itchgrass: 25
